B1: SHLVKCAEKEKTFCVNGGECFMVKDLSNPSRYLCKCPNEFTGDRCQNYVMASFYKAEELYQ (protein)
chain: SHLVKCAEKEKTFCVNGGECFMVKDLSNPSRYLCKCPNEFTGDRCQNYVMASFYKAEELYQ
modifications: chains of the parent or of the whole protein
B2: NRG: full length wild type neuregulin β2 peptide (protein)
chain: B1 chain

Experiments:
[1] = system: AKT phosphorylation in cardiomyocytes; experiment: Effect of neuregulin peptides on the phosphorylation of AKT in cardiomyocytes (western blot); assay type: cell-based, rat; settings: cardiac cells from left ventricles of neonatal rats, different concentrations, 20 minutes, FIG. 1
Procedure: To study the effect of synthesized peptides on ErbB2 and ErbB4 signaling in cardiomyocytes, cardiac cells extracted from left ventricles of neonatal rats were used.
Cardiac cells were grown in media with serum for 2 days. After the cells reached about 80% confluence, the media was changed to serum free media. After another 24 hours, different amounts of synthesized neuregulin peptides or neuregulin were added into separate wells containing the cells for 20 minutes. The media was then aspirated and gel loading buffer was added to lyse the cells. The sample was then harvested and loaded into a separate well of gel for electrophoresis and western blot analysis.

ErbB2 receptor = biological target: T1, ErbB2 receptor (Homo sapiens, UniProt P04626+P21860); experiment: Receptor binding: neuregulin-induced ErbB2 phosphorylation in MCF-7 cells (ErbB2 antibody H4 capture, anti-phosphotyrosine ELISA); assay type: cell-based; settings: 20 min at 37° C., concentration achieving 50% of maximum OD value at 450 nm
T1 construct: endogenous in cells; host or cells: MCF-7
Text: Briefly, the assay measures neuregulin induced ErbB2 activation and phosphorylation on the adherent breast carcinoma cell line, MCF-7. Membrane proteins are solubilized via Triton X-100 lysis and the receptor is captured in ELISA wells coated with ErbB2-specific antibodies (e.g., H4) with no cross-reaction to ErbB3 or ErbB4. The degree of receptor phosphorylation is then quantified by antiphosphotyrosine ELISA.
MCF-7 cells was harvested, counted, pelleted and resuspended into DMEM (with 10% serum and 9 μg/ml insulin) at 5×10^4 cells/ml. 100 μl cell suspension was added to each well of 96 well plate and the plate was incubated at 37° C. overnight. The cells were then washed 3 times with PBS and grew in serum free DMEM for another 24 hours.
ErbB2 antibody H4 (Zensun, anti-ErbB2 monoclonal antibody) was diluted to 6 μg/ml by coating buffer (50 mM Na2CO3—NaHCO3, pH9.6), and added to 96 well plate 50 μl/well. The plate was left at 4° C. overnight to coat with antibody.
DMEM was added to two wells as blank. The plate was incubated at 37° C. for 20 min. The cells were washed once with PBS before adding 100 μl/well lysis buffer (50 mM Hepes, pH 8.0, 150 mM NaCl, 2 mM sodium orthovanadate, 0.01% thimerosal, 1% Triton X-100 and one protease inhibitor cocktail tablet per 25 ml solution) and lysing at 4° C. for 30 min. […]

Molecule | effect on AKT phosphorylation compared with NRG [1] | EC50 (ErbB2 receptor)
CSCC[C@@H]1NC(=O)[C@H](Cc2ccccc2)NC(=O)[C@@H]2CSSC[C@H](NC(=O)[C@H](CCCCN)NC(=O)[C@@H](NC(=O)[C@H](CC(C)C)NC(=O)[C@H](Cc3c[nH]cn3)NC(=O)[C@@H](N)CO)C(C)C)C(=O)N[C@@H](C)C(=O)N[C@@H](CCC(=O)O)C(=O)N[C@@H](CCCCN)C(=O)N[C@@H](CCC(=O)O)C(=O)N[C@@H](CCCCN)C(=O)N[C@@H]([C@@H](C)O)C(=O)N[C@@H](Cc3ccccc3)C(=O)N[C@@H](CSSC[C@@H](C(=O)N[C@@H](CCCCN)C(=O)N[C@H]3CSSC[C@@H](C(=O)N[C@@H](CCC(N)=O)C(=O)N[C@@H](CC(N)=O)C(=O)N[C@@H](Cc4ccc(O)cc4)C(=O)N[C@H](C(=O)N[C@@H](CCSC)C(=O)N[C@@H](C)C(=O)N[C@@H](CO)C(=O)N[C@@H](Cc4ccccc4)C(=O)N[C@@H](Cc4ccc(O)cc4)C(=O)N[C@@H](CCCCN)C(=O)N[C@@H](C)C(=O)N[C@@H](CCC(=O)O)C(=O)N[C@@H](CCC(=O)O)C(=O)N[C@@H](CC(C)C)C(=O)O)C(C)C)NC(=O)[C@H](CCCNC(=N)N)NC(=O)[C@H](CC(=O)O)NC(=O)CNC(=O)[C@H]([C@@H](C)O)NC(=O)[C@H](Cc4ccccc4)NC(=O)[C@H](CCC(=O)O)NC(=O)[C@H](CC(N)=O)NC(=O)[C@@H]4CCCN4C3=O)NC(=O)[C@H](CC(C)C)NC(=O)[C@H](Cc3ccc(O)cc3)NC(=O)[C@H](CCCNC(=N)N)NC(=O)[C@H](CO)NC(=O)[C@@H]3CCCN3C(=O)[C@H](CC(N)=O)NC(=O)[C@H](CO)NC(=O)[C@H](CC(C)C)NC(=O)[C@H](CC(=O)O)NC(=O)[C@H](CCCCN)NC(=O)[C@H](C(C)C)NC1=O)C(=O)N[C@@H](C(C)C)C(=O)N[C@@H](CC(N)=O)C(=O)NCC(=O)NCC(=O)N[C@@H](CCC(=O)O)C(=O)N2 [NRG59] | almost have the same effect as NRG | –
CSCC[C@@H]1NC(=O)[C@H](Cc2ccccc2)NC(=O)[C@@H]2CSSC[C@H](NC(=O)[C@H](CCCCN)NC(=O)[C@@H](NC(=O)[C@H](CC(C)C)NC(=O)[C@H](Cc3c[nH]cn3)NC(=O)[C@@H](N)CO)C(C)C)C(=O)N[C@@H](C)C(=O)N[C@@H](CCC(=O)O)C(=O)N[C@@H](CCCCN)C(=O)N[C@@H](CCC(=O)O)C(=O)N[C@@H](CCCCN)C(=O)N[C@@H]([C@@H](C)O)C(=O)N[C@@H](Cc3ccccc3)C(=O)N[C@@H](CSSC[C@@H](C(=O)N[C@@H](CCCCN)C(=O)N[C@H]3CSSC[C@@H](C(=O)N[C@@H](CCC(N)=O)C(=O)N[C@@H](CC(N)=O)C(=O)N[C@@H](Cc4ccc(O)cc4)C(=O)N[C@H](C(=O)N[C@@H](CCSC)C(=O)N[C@@H](C)C(=O)N[C@@H](CO)C(=O)N[C@@H](Cc4ccccc4)C(=O)N[C@@H](Cc4ccc(O)cc4)C(=O)N[C@@H](CCCCN)C(=O)O)C(C)C)NC(=O)[C@H](CCCNC(=N)N)NC(=O)[C@H](CC(=O)O)NC(=O)CNC(=O)[C@H]([C@@H](C)O)NC(=O)[C@H](Cc4ccccc4)NC(=O)[C@H](CCC(=O)O)NC(=O)[C@H](CC(N)=O)NC(=O)[C@@H]4CCCN4C3=O)NC(=O)[C@H](CC(C)C)NC(=O)[C@H](Cc3ccc(O)cc3)NC(=O)[C@H](CCCNC(=N)N)NC(=O)[C@H](CO)NC(=O)[C@@H]3CCCN3C(=O)[C@H](CC(N)=O)NC(=O)[C@H](CO)NC(=O)[C@H](CC(C)C)NC(=O)[C@H](CC(=O)O)NC(=O)[C@H](CCCCN)NC(=O)[C@H](C(C)C)NC1=O)C(=O)N[C@@H](C(C)C)C(=O)N[C@@H](CC(N)=O)C(=O)NCC(=O)NCC(=O)N[C@@H](CCC(=O)O)C(=O)N2 [NRG55] | much stronger effect than NRG | –
CSCC[C@@H]1NC(=O)[C@H](Cc2ccccc2)NC(=O)[C@@H]2CSSC[C@H](NC(=O)[C@H](CCCCN)NC(=O)[C@@H](NC(=O)[C@H](CC(C)C)NC(=O)[C@H](Cc3c[nH]cn3)NC(=O)[C@@H](N)CO)C(C)C)C(=O)N[C@@H](C)C(=O)N[C@@H](CCC(=O)O)C(=O)N[C@@H](CCCCN)C(=O)N[C@@H](CCC(=O)O)C(=O)N[C@@H](CCCCN)C(=O)N[C@@H]([C@@H](C)O)C(=O)N[C@@H](Cc3ccccc3)C(=O)N[C@@H](CSSC[C@@H](C(=O)N[C@@H](CCCCN)C(=O)N[C@H]3CSSC[C@@H](C(=O)N[C@@H](CCC(N)=O)C(=O)N[C@@H](CC(N)=O)C(=O)N[C@@H](Cc4ccc(O)cc4)C(=O)N[C@H](C(=O)N[C@@H](CCSC)C(=O)N[C@@H](C)C(=O)N[C@@H](CO)C(=O)N[C@@H](Cc4ccccc4)C(=O)N[C@@H](Cc4ccc(O)cc4)C(=O)N[C@@H](CCCCN)C(=O)N[C@@H](C)C(=O)N[C@@H](CCC(=O)O)C(=O)O)C(C)C)NC(=O)[C@H](CCCNC(=N)N)NC(=O)[C@H](CC(=O)O)NC(=O)CNC(=O)[C@H]([C@@H](C)O)NC(=O)[C@H](Cc4ccccc4)NC(=O)[C@H](CCC(=O)O)NC(=O)[C@H](CC(N)=O)NC(=O)[C@@H]4CCCN4C3=O)NC(=O)[C@H](CC(C)C)NC(=O)[C@H](Cc3ccc(O)cc3)NC(=O)[C@H](CCCNC(=N)N)NC(=O)[C@H](CO)NC(=O)[C@@H]3CCCN3C(=O)[C@H](CC(N)=O)NC(=O)[C@H](CO)NC(=O)[C@H](CC(C)C)NC(=O)[C@H](CC(=O)O)NC(=O)[C@H](CCCCN)NC(=O)[C@H](C(C)C)NC1=O)C(=O)N[C@@H](C(C)C)C(=O)N[C@@H](CC(N)=O)C(=O)NCC(=O)NCC(=O)N[C@@H](CCC(=O)O)C(=O)N2 [NRG57] | almost have the same effect as NRG | –
B1 | – | 1.439 µg/mL
B2 | – | 0.2772 µg/mL

— US8609620B2, “Neuregulin peptides and their use” (Zensun (Shanghai) Science & Technology Ltd., priority 2008, dated 2013)
